Assay results as given in publication PMC9668655 (Computational and Structural Biotechnology Journal, 2022).
pIC50, pKd: −log10 of the molar value.

Legend:
RSL-MOA [1] = assay type: binding, Ralstonia nicotianae; Marasmius oreades; details: 20 mM Tris/HCl pH 7.5, 100 mM NaCl, 25 °C, one-site model, titrated into the RSL-MOA/Galα1-3Gal complex
RSL = RSL (Ralstonia pseudosolanacearum, UniProt Q8XXK6); details: 250 µM; 250 μM ligand, 25 μM protein; absolute Tm1, not a shift (ligand-free reference in the 2nd table, row 4); 20 mM Tris/HCl pH 7.5, 100 mM NaCl
RSL-MOA [2] = assay type: binding, Ralstonia nicotianae; Marasmius oreades; details: 50 nM RSL-MOA pre-incubated with fucose; 10 mM HEPES pH 7.5, 100 mM NaCl, 0.05 % Tween 20, 25 °C; RSL site; competitive with immobilised fucose

Structure (SMILES)	pKd (RSL-MOA [1])	Tm1 (°C) (RSL)	pIC50 (RSL-MOA [2])
CO[C@@H]1O[C@@H](C)[C@@H](O)[C@@H](O)[C@@H]1O [α-methyl fucoside]	6.40	101.6 °C	
C[C@@H]1OC(O)[C@@H](O)[C@H](O)[C@@H]1O (stereo partly drawn) [L-fucose]			5.11
